pIC50: −log10 of the molar value.
Molecular target: human HPK1 (MAP4K1) (Homo sapiens (Human), UniProt Q92918)
Experiment: HPK1 IC50 Assay (TR-FRET peptide phosphorylation)
Assay type: biochemical
Conditions: recombinant HPK1 kinase domain 0.15 nM, 10 μM ATP, 1 μM STK S1 peptide; geometric mean of multiple experiments
Description: The enzymatic activity of human HPK1 (MAP4K1) was monitored in a biochemical assay in the presence or absence of compounds and using a synthetic peptide substrate. An increase in phosphorylation of the peptide by HPK1 was indicative of its kinase activity.
Recombinant HPK1 kinase domain produced via baculovirus infection of insect cells was obtained from Proteros (Proteros Biostructures #PR-0322) and was pre-activated in the presence of 2 mM ATP (Sigma-Aldrich, cat #GE27-2056-01) and 2 mM magnesium chloride for 16 hours at 4° C. The protein reaction mixture was then loaded to a desalting column (Thermo Fisher Scientific, Cat #89889) to remove excess ATP. HPK1 was eluted with buffer containing 20 mM Tris (2-Amino-2-(hydroxymethyl)propane-1,3-diol) pH 8.0, 150 mM NaCl, 2 mM dithiothreitol and 5% glycerol, and was frozen at −80° C. for later use. HPK1 dual phosphorylation was confirmed by mass spectrometry.
Ten nanoliters of test compounds dissolved in DMSO at various concentrations were dispensed into a 384-well ProxiPlate (PerkinElmer #6008289). Five microliters of a solution of recombinant HPK1 diluted in HPK1 kinase assay buffer (50 mM BES [N,N-Bis(2-hydroxyethyl)-2-aminoethanesulfonic acid], pH 7.0; 10 mM magnesium chloride; 0.01% Triton X-100; 1 mM dithiothreitol; 0.01% bovine serum albumin; 0.1 mM sodium orthovanadate) was added to the compound-containing plate and was incubated for 15 minutes at 25° C. Five microliters of a mixture of ATP (Sigma-Aldrich #A6559) and peptide substrate STK S1 (Cisbio #61ST1BLC) diluted in HPK1 kinase assay buffer was then added to start the reaction. Final concentrations were 0.15 nM for HPK1, 10 μM for ATP, and 1 μM for the STK S1 peptide substrate. The reaction mixture was incubated at 25° C. for 3 hours and was stopped with the addition of 10 μl of an EDTA (Ethylenediaminetetraacetic acid)-containing detection buffer (Cisbio #62SDBRDF) supplemented with Europium cryptate-labeled anti-phospho-serine/threonine antibodies (Cisbio #62ST1PEJ) and XL665-labeled streptavidin (Cisbio #610SAXLG). The mixture was incubated for 16 hours at room temperature and peptide phosphorylation was measured by time-resolved fluorescence energy transfer (665 nm/620 nm) on an Envision plate reader (PerkinElmer).
Data in Table 1 were normalized based on positive (staurosporine) and negative (DMSO) controls. Least squares curve fittings were performed using a four-parameter variable slope nonlinear regression model. IC50 is defined as the concentration of compound required to inhibit 50% of maximum phosphorylation. IC50 values from multiple experiments were averaged by geometric mean and the standard deviation was calculated.

Sequence of human HPK1 (MAP4K1) (Q92918 17-274): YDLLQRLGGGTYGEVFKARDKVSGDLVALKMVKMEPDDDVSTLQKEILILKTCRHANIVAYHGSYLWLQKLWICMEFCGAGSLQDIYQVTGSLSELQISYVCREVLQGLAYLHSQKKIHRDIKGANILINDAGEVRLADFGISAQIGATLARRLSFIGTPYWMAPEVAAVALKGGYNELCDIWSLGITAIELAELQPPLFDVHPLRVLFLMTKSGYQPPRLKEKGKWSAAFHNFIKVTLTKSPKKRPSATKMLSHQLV

Row | Compound | pIC50
1 | Cc1ccc(Nc2nc(-c3ccc4c(c3)N([C@H]3C[C@@H](N5CCCCC5)C3)C(=O)C4(C)C)cc3ncn(C(C)C)c23)cc1C(=O)NCC(C)(F)F [Example 28] | 10.00
2 | Cc1ccc(Nc2nc(-c3ccc4c(c3)N([C@H]3C[C@@H](N5CCCCC5)C3)C(=O)C4(C)C)cc3ncn(C(C)C)c23)cc1C(=O)N[C@@H](C)CF [Example 29] | 10.00
3 | Cc1ccc(Nc2nc(-c3ccc4c(c3)N([C@H]3C[C@@H](N5CCCCC5)C3)C(=O)C4(C)C)cc3ncn(C(C)C)c23)cc1C(=O)N[C@H](C)CF [Example 30] | 10.00
4 | Cc1ccc(Nc2nc(-c3ccc4c(c3)N([C@H]3C[C@@H](N5CCCCC5)C3)C(=O)C4(C)C)cc3ncn(C(C)C)c23)cc1C(=O)NC(CF)CF [Example 31] | 10.10
5 | Cc1ccc(Nc2nc(-c3ccc4c(c3)N([C@H]3C[C@@H](N5CCCCC5)C3)C(=O)C43CCOCC3)cc3ncn(C(C)C)c23)cc1C(=O)NC1(C(F)F)CC1 [Example 32] | 10.10
6 | CNC(=O)c1cc(Oc2nc(-c3ccc4c(c3)N([C@H]3C[C@@H](N5CCCCC5)C3)C(=O)C4(C)C)cc3ncn(C4CC4)c23)ccc1C [Example 34] | 9.22
7 | CNC(=O)c1cc(Nc2nc(-c3ccc4c(c3)N([C@H]3C[C@@H](N5CCCCC5)C3)C(=O)C43CCOCC3)cc3ncn(C(C)C)c23)c(F)cc1C [Example 35] | 10.00
8 | Cc1ccc(Nc2nc(-c3ccc4c(c3)N([C@H]3C[C@@H](N5CCC[C@H](O)C5)C3)C(=O)C4(C)C)cc3ncn(C4CC4)c23)cc1C(N)=O [Example 36] | 10.00
9 | Cc1ccc(Nc2nc(-c3ccc4c(c3)N([C@H]3C[C@@H](N5CCC[C@@H](O)C5)C3)C(=O)C4(C)C)cc3ncn(C4CC4)c23)cc1C(N)=O [Example 37] | 10.00
10 | CNC(=O)c1cc(Nc2nc(-c3ccc4c(c3)N([C@H]3C[C@@H](N5CCCC(C)(C)C5)C3)C(=O)C4(C)C)cc3ncn(C4CC4)c23)ccc1C [Example 38] | 10.15
11 | CNC(=O)c1cc(Nc2nc(-c3ccc4c(c3)N([C@H]3C[C@@H](N5CCOCC5)C3)C(=O)C4(C)C)cc3ncn(C(C)C)c23)ccc1C [Example 39] | 10.00
12 | CNC(=O)c1cc(Nc2nc(-c3ccc4c(c3)N([C@H]3C[C@@H](N5CCCCC5)C3)C(=O)C4(C)C)cc3ncn(C4CC4)c23)ccc1Cl [Example 40] | 10.00
13 | CNC(=O)c1cc(Nc2nc(-c3ccc4c(c3)N([C@H]3C[C@@H](N5CCCCC5)C3)C(=O)C43CCN(C(=O)C45CC(C4)C5)CC3)cc3ncn(C4CC4)c23)ccc1Cl [Example 41] | 10.15
14 | CNC(=O)c1cc(Nc2nc(-c3ccc4c(c3)N([C@H]3C[C@@H](N5C[C@H]6CC[C@@H]5C6)C3)C(=O)C43CCN(C(=O)C4COC4)CC3)cc3ncn(C4CC4)c23)ccc1C [Example 42] | 10.22
15 | CNC(=O)c1cc(Nc2nc(-c3ccc4c(c3)N([C@H]3C[C@@H](N5C[C@H]6CC[C@@H]5C6)C3)C(=O)C43CCN(C(=O)C45CC(C4)C5)CC3)cc3ncn(C4CC4)c23)ccc1C [Example 43] | 10.10
16 | CNC(=O)c1cc(Nc2nc(-c3ccc4c(c3)N([C@H]3C[C@@H](N5C[C@H]6CC[C@@H]5C6)C3)C(=O)C43CCN(C(C)=O)CC3)cc3ncn(C4CC4)c23)ccc1C [Example 44] | 9.70
17 | CCC1(CC)C(=O)N([C@H]2C[C@@H](N3CCCCC3)C2)c2cc(-c3cc4ncn(C(C)C)c4c(Nc4ccc(C)c(C(=O)NC)c4)n3)ccc21 [Example 45] | 10.00
18 | CNC(=O)c1cc(Nc2nc(-c3ccc4c(c3)N([C@H]3C[C@@H](N5CCCCC5)C3)C(=O)C43CCN(C(C)=O)CC3)cc3ncn(C(C)C)c23)ccc1C [Example 46] | 10.00
19 | CNC(=O)c1cc(Nc2nc(-c3ccc4c(c3)N([C@H]3C[C@@H](N5CCCCC5)C3)C(=O)C43CCN(C(C)=O)CC3)cc3ncn(C4CC4)c23)ccc1Cl [Example 47] | 9.70
20 | CC[C@H](C)n1cnc2cc(-c3ccc4c(c3)N([C@H]3C[C@@H](N5CCCCC5)C3)C(=O)C43CCN(C(C)=O)CC3)nc(Nc3ccc(C)c(C(=O)NC)c3)c21 [Example 48] | 10.00
21 | CCn1cnc2cc(-c3ccc4c(c3)N([C@H]3C[C@@H](N5CCCCC5)C3)C(=O)C43CCN(C(C)=O)CC3)nc(Nc3ccc(C)c(C(=O)NC)c3)c21 [Example 49] | 10.00

Row | Compound | pIC50
22 | CNC(=O)c1cc(Nc2nc(-c3ccc4c(c3)N([C@H]3C[C@@H](N5CCCCC5)C3)C(=O)C43CCN(C(=O)OC)CC3)cc3ncn(C4CC4)c23)ccc1C [Example 50] | 10.00
23 | CNC(=O)c1cc(Nc2nc(-c3ccc4c(c3)N([C@H]3C[C@@H](N5CCCCC5)C3)C(=O)C43CCN(C(=O)C4CC4)CC3)cc3ncn(C4CC4)c23)ccc1C [Example 51] | 10.00
24 | CNC(=O)c1cc(Nc2nc(-c3ccc4c(c3)N([C@H]3C[C@@H](N5CCCCC5)C3)C(=O)C43CCN(C(=O)C(C)C)CC3)cc3ncn(C4CC4)c23)ccc1C [Example 52] | 10.05
25 | CCC(=O)N1CCC2(CC1)C(=O)N([C@H]1C[C@@H](N3CCCCC3)C1)c1cc(-c3cc4ncn(C(C)C)c4c(Nc4cc(C(=O)NC(C)C)c(C)cc4F)n3)ccc12 [Example 53] | 10.10
26 | CCn1cnc2cc(-c3ccc4c(c3)N([C@H]3C[C@@H](N5CCCCC5)C3)C(=O)C43CCN(C(C)=O)CC3)nc(Nc3cc(C(=O)NC(C)C)c(C)cc3F)c21 [Example 54] | 9.40
27 | Cc1cc(F)c(Nc2nc(-c3ccc4c(c3)N([C@H]3C[C@@H](N5CCCCC5)C3)C(=O)C43CCN(C(=O)C(C)(C)O)CC3)cc3ncn(C(C)C)c23)cc1C(=O)NC(C)C [Example 55] | 9.70
28 | CCNC(=O)c1cc(Nc2nc(-c3ccc4c(c3)N([C@H]3C[C@@H](N5CCCCC5)C3)C(=O)C43CCN(C(=O)CC)CC3)cc3ncn(CC)c23)c(F)cc1C [Example 56] | 9.52
29 | CNC(=O)c1cc(Nc2nc(-c3ccc4c(c3)N([C@H]3C[C@@H](N5CCCCC5)C3)CC4(C)C)cc3ncn(C(C)C)c23)ccc1C [Example 57] | 9.70
30 | CNC(=O)c1cc(Nc2nc(-c3ccc4c(c3)N([C@H]3C[C@@H](N5CCCCC5)C3)CC4(C)C)cc3ncn(C4CC4)c23)ccc1C [Example 58] | 9.22
31 | CNC(=O)c1cc(Nc2nc(-c3ccc4c(c3)N([C@H]3C[C@@H](N5CCCCC5)C3)C(=O)C43CCN(C(C)=O)CC3)cc3ncn(C4CC4)c23)ccc1C [Example 58a] | 10.00
32 | CC(=O)N1CCC2(CC1)C(=O)N([C@H]1C[C@@H](N3CCCCC3)C1)c1cc(-c3cc4ncn(C(C)C)c4c(Nc4cc(C(=O)NC(C)(C)C)c(C)cc4F)n3)ccc12 [Example 59] | 9.52
33 | CCNC(=O)c1cc(Nc2nc(-c3ccc4c(c3)N([C@H]3C[C@@H](N5CCCCC5)C3)C(=O)C43CCN(C(=O)CC)CC3)cc3ncn(C(C)C)c23)c(F)cc1C [Example 60] | 9.70
34 | CNC(=O)c1cc(Nc2nc(-c3ccc4c(c3)N([C@H]3C[C@@H](N5CCCCC5)C3)C(=O)C43CCN(CC(F)F)CC3)cc3ncn(C(C)C)c23)c(F)cc1C [Example 61] | 9.70
35 | Cc1ccc(Nc2nc(-c3ccc4c(c3)N([C@H]3C[C@@H](N5CCCCC5)C3)C(=O)C43CCN(CC(F)F)CC3)cc3ncn(C(C)C)c23)cc1C(=O)NC(C)C [Example 62] | 10.00
36 | CNC(=O)c1cc(Nc2nc(-c3ccc4c(c3)N([C@H]3C[C@@H](N5CCCCC5)C3)C(=O)C4(C)O)cc3ncn(C(C)C)c23)ccc1Cl (some centres unmarked) [Example 63] | 10.00
37 | Cc1c(C(=O)NC2(C(F)F)CC2)cc(Nc2nc(-c3cnc4c(c3)N([C@H]3C[C@@H](N5C[C@H]6CC[C@@H]5C6)C3)C(=O)C4(C)C)cc3ncn(C(C)C)c23)c(F)c1F [Example 64] | 10.00
38 | Cc1cc(F)c(Nc2nc(-c3ccc4c(c3)N([C@H]3C[C@@H](N5CCCCC5)C3)C(=O)C4(C)C)cc3ncn(C(C)C)c23)cc1C(=O)NC1(C(F)F)CC1 [Example 65] | 10.00
39 | Cc1cc(F)c(Nc2nc(-c3ccc4c(c3)N([C@H]3C[C@@H](N5C[C@H]6CC[C@@H]5C6)C3)C(=O)C4(C)C)cc3ncn(C(C)C)c23)cc1C(=O)NC1(C(F)F)CC1 [Example 66] | 10.05
40 | Cc1cc(F)c(Nc2nc(-c3cnc4c(c3)N([C@H]3C[C@@H](N5CCCCC5)C3)C(=O)C4(C)C)cc3ncn(C(C)C)c23)cc1C(=O)NC1(C(F)F)CC1 [Example 67] | 9.52
41 | CNC(=O)c1cc(Nc2nc(-c3ccc4c(c3)N([C@H]3C[C@@H](N5CCCCC5)C3)C(=O)C43CCN(C4COC4)CC3)cc3ncn(C(C)C)c23)c(F)cc1C [Example 68] | 9.70

Source: patent US11203591B2, “Substituted 6-azabenzimidazole compounds” (Gilead Sciences, Inc., priority 2018, dated 2021)
